{
  "source": "paper PMC11189555",
  "about": "“Aryl amino acetamides prevent Plasmodium falciparum ring development via targeting the lipid-transfer protein PfSTART1” (Nature Communications, 2024)",
  "key": {"CR-N309K parasites": {"test_system": "CR-N309K parasites", "experiment": "Growth inhibition assay (72 h, LDH activity)", "format": "cell-based, Plasmodium falciparum", "details": "for inhibition at 5 µM: read-out: NORMALISED (growth inhibition, LDH absorbance)", "procedure": "(§1) Parasite growth assays with inhibitory compounds were performed as per[11] and are fully described in the Supplementary Information.\n(§2) Molecular biology and transfection of P. falciparum: CRISPR method.\n(§3) The full 5’ homology region of pfstart1 (either WT, N309K or N330K) was amplified from pPfSTART1-HA-2A-Neo-glmS with the same 5’ BglII primer and a new 3’ primer that replaced with PstI with SpeI and introduced a stop codon. The PCR product was then digested with BglII and SpeI and inserted into similarly digested p1.2 parasite vector2. The p1.2 vector had previously been inserted with a homology region amplified from the 3’ end of the pfstart1 gene (3’HB) to form a second homology block for double recombination. The primers used to amplify 3’HB are listed primers listed in […]\n(§4) 60 μg of p1.2-PfSTART1(WT/N309K/N330K) plasmid was linearised with KasI, precipitated in 3 M sodium acetate and ethanol (70% final concentration) overnight at -20°C. The DNA pellet was washed in cold 70% ethanol and resuspended in cytomix 3.\n(§5) 50 μ M of crRNA ( Table S 2) and 50 μM of tracRNA (Integrated DNA Technologies) were allowed to form a duplex (5 min at 95°C), and Cas9 enzyme (Integrated DNA Technologies) was added, and incubated for 20 min at room temperature 4. This crRNA -tracRNA -Cas9 mix was added to each DNA preparation and transfected to 3D7 ring parasites using the Bio -Rad Gene Pulser at 310 V and 950 μF.\n(§6) Parasites containing the transfected DNA were selected using 2.5 nM WR99210 (Jacobus). Parasites lines were cloned using limiting dilution. Correct integration was tested by PCR (using primer START_5’UTR.F and START_Int.R1 , Table S 2), and sequencing was done using the primers START_3F and START_Int.R2 (Table S 2).\n(§7) Growth inhibition assays. Synchronised ring-stage parasites (0.3-0.6% parasitemia, 2% haematocrit) were grown for 72 h in a serial-dilution of the compound under […]\n(§8) and compound 4. Note that M-833 was first purchased from MolPort (MolPort -002-267-916) then made in-house at WEHI: the differences observed in EC50s across experiments are attributed to the different batches of M -833. For some experiments, 0, 0.25 or 2.5 mM of glucosamine (GlcN) was also added. Experiments were set up in technical duplicates or triplicates. Following a freeze -thaw cycle, lactate dehydrogenase (LDH) activity was assessed as an indicator of parasite growt h 5. 30 μL of parasite culture was incubated for 30 min in the dark with 75 μL Malstat mixture (0.1 M Tris pH 9.0, 20 g/L lactic acid, pH 7.5, 0.2% Triton-X100, 0.5 g/L acetylpyridine adenine dinucleotide (APAD, Sigma), 200 μg/mL nitroblue tetrazolium (NBT; Sigma), 1 μg/mL phenozine ethosulfate (PES; Sigma)). Absorbance was then measured at 650 nm, transformed using the formula below, plotted against the logarithm of the concentrations, and a non-linear regression (log(inhibitor) vs. response, variable slope) was calculated using GraphPad Prism to assess the half-inhibitory […]\n(§9) Growth inhibition % = (1 − average(sample)− average(uRBC)) ∗ 100 […]\n(§10) The DMSO samples were also used to assess growth of parasite in the presence of 0.25 and 2.5 mM GlcN (normalised by DMSO in 0 mM GlcN).\n(§11) Egress, invasion & recovery assay. To measure egress, invasion and follow up recovery in the presence of different compounds, we adapted the method developed in6, using Hyp1-Nluc parasites7. These parasites episomally express the exported PEXEL protein Hyp1 (PF3D7_0113300) tagged with a NanoLuc luciferase (NLuc) and were selected with 2.5 nM WR99210 (Jacobus). Highly synchronised schizonts were obtained using ML10 (LifeArc) and sorbitol synchronisation, and Percoll-purified (the culture was gently layered over 67% Percoll (Cytiva) in RPMI, and centrifuged for 15 min at 1500 g and the schizont layer was collected and washed). In a 96-well plate, […]"}, "CR-N330K parasites": {"test_system": "CR-N330K parasites", "experiment": "Growth inhibition assay (72 h, LDH activity)", "format": "cell-based, Plasmodium falciparum", "procedure": "as §1, §2, §3, §4, §5, §6, §7, §8, §9, §10, §11"}, "[1]": {"details": "0.25 mM GlcN, dilution point 1 of 10, starting concentration 5 uM"}, "[2]": {"details": "0.25 mM GlcN, dilution point 2 of 10 from starting concentration 5 uM"}, "[3]": {"details": "0.25 mM GlcN, dilution point 3 of 10 from starting concentration 5 uM"}, "[4]": {"details": "0.25 mM GlcN, dilution point 6 of 10 from starting concentration 5 uM"}, "[5]": {"details": "2.5 mM GlcN, dilution point 1 of 10, starting concentration 5 uM"}, "[6]": {"details": "2.5 mM GlcN, dilution point 2 of 10 from starting concentration 5 uM"}, "[7]": {"details": "2.5 mM GlcN, dilution point 3 of 10 from starting concentration 5 uM"}, "[8]": {"details": "2.5 mM GlcN, dilution point 4 of 10 from starting concentration 5 uM"}, "[9]": {"details": "2.5 mM GlcN, dilution point 5 of 10 from starting concentration 5 uM"}, "[10]": {"details": "2.5 mM GlcN, dilution point 6 of 10 from starting concentration 5 uM"}},
  "note": "“And” between values parts separate entries of the source, which are not always exact repeats. Identical values can stand only once. Like-named read-outs stand apart in the source and are kept apart here.",
  "data": [
    {"smiles": "CC(C)(Nc1ccc(Cl)c(S(=O)(=O)N2CCOCC2)c1)C(=O)Nc1ccc(F)c(Cl)c1", "note": "[W-991]", "values": [
      {"measurement": "NORMALISED (growth inhibition, LDH absorbance vs DMSO and uRBC)", "setting": "CR-N309K parasites; 0 mM GlcN, W991 at 185.185 nM", "result": "14.1711 and 15.2813"},
      {"measurement": "NORMALISED (growth inhibition, LDH absorbance vs DMSO and uRBC)", "setting": "CR-N309K parasites; 0 mM GlcN, W991 at 555.556 nM", "result": "55.508 and 36.7800"},
      {"measurement": "NORMALISED (growth inhibition, LDH absorbance vs DMSO and uRBC)", "setting": "CR-N309K parasites; 0 mM GlcN, W991 at 1666.67 nM", "result": "87.9679 and 76.9970"},
      {"measurement": "NORMALISED (growth inhibition, LDH absorbance vs DMSO and uRBC)", "setting": "CR-N309K parasites; 0 mM GlcN, W991 at 5000 nM", "result": "96.4706 and 92.1927"},
      {"measurement": "NORMALISED (growth inhibition, LDH absorbance)", "setting": "CR-N309K parasites; [1]", "result": 94.7776},
      {"measurement": "NORMALISED (growth inhibition, LDH absorbance)", "setting": "CR-N309K parasites; [2]", "result": "100.739 and 90.0516"},
      {"measurement": "NORMALISED (growth inhibition, LDH absorbance)", "setting": "CR-N309K parasites; [3]", "result": "80.0443 and 56.9500"},
      {"measurement": "NORMALISED (growth inhibition, LDH absorbance)", "setting": "CR-N309K parasites; 0.25 mM GlcN, dilution point 5 of 10 from starting concentration 5 uM", "result": "17.9601 and 13.8403"},
      {"measurement": "NORMALISED (growth inhibition, LDH absorbance)", "setting": "CR-N309K parasites; [4]", "result": "8.426 and 8.7470"},
      {"measurement": "NORMALISED (growth inhibition, LDH absorbance)", "setting": "CR-N309K parasites; [5]", "result": 83.5476},
      {"measurement": "NORMALISED (growth inhibition, LDH absorbance)", "setting": "CR-N309K parasites; [6]", "result": 82.9906},
      {"measurement": "NORMALISED (growth inhibition, LDH absorbance)", "setting": "CR-N309K parasites; [7]", "result": "95.6522 and 78.1705"},
      {"measurement": "NORMALISED (growth inhibition, LDH absorbance)", "setting": "CR-N309K parasites; [8]", "result": "71.5415 and 48.7789"},
      {"measurement": "NORMALISED (growth inhibition, LDH absorbance)", "setting": "CR-N309K parasites; [9]", "result": "41.502 and 22.2365"},
      {"measurement": "NORMALISED (growth inhibition, LDH absorbance)", "setting": "CR-N309K parasites; [10]", "result": "17.3913 and 10.0471"},
      {"measurement": "NORMALISED (growth inhibition, LDH absorbance)", "setting": "CR-N309K parasites; 2.5 mM GlcN, dilution point 8 of 10 from starting concentration 5 uM", "result": "5.138 and 4.2631"},
      {"measurement": "NORMALISED (growth inhibition, LDH absorbance)", "setting": "CR-N309K parasites; 2.5 mM GlcN, dilution point 9 of 10 from starting concentration 5 uM", "result": "11.3967 and 7.51"},
      {"measurement": "fold less susceptible than the 3D7 and CR-WT controls", "setting": "CR-N309K parasites; Fig 4C", "result": "around 600 fold"},
      {"measurement": "fold sensitised on PfSTART1 knock-down with GlcN", "setting": "CR-N309K parasites; Fig 4C", "result": 5, "unit": "fold"},
      {"measurement": "EC50", "setting": "CR-N309K parasites; Fig 4C, 0 mM GlcN, n = 3, read-out: EC50 W-991 (95% confidence interval)", "result": "< 700", "unit": "nM"},
      {"measurement": "inhibition at 5 µM", "setting": "CR-N309K parasites; Plasmodium falciparum, 0.25 mM GlcN, dilution point 1 of 10, starting concentration 5 uM", "result": 101, "unit": "%"},
      {"measurement": "inhibition at 5 µM", "setting": "CR-N309K parasites; Plasmodium falciparum, 2.5 mM GlcN, dilution point 1 of 10, starting concentration 5 uM", "result": 94.5, "unit": "%"},
      {"measurement": "EC50", "setting": "CR-N309K parasites; Plasmodium falciparum, read-out: EC50 W-991 (95% confidence interval), Fig 4C, 0 mM GlcN, n = 3", "result": 687, "unit": "nM"},
      {"measurement": "EC50", "setting": "CR-N309K parasites; Plasmodium falciparum, read-out: EC50 W-991 (95% confidence interval), Fig 4C, 0.25 mM GlcN, n = 3", "result": 362, "unit": "nM"},
      {"measurement": "EC50", "setting": "CR-N309K parasites; Plasmodium falciparum, read-out: EC50 W-991 (95% confidence interval), Fig 4C, 2.5 mM GlcN, n = 3", "result": 137, "unit": "nM"},
      {"measurement": "EC50", "setting": "CR-N309K parasites; read-out: EC50 W-991 (95% confidence interval), Fig 4C, 0 mM GlcN, n = 3", "result": 687, "unit": "nM"},
      {"measurement": "NORMALISED (growth inhibition, LDH absorbance)", "setting": "CR-N330K parasites; 0 mM GlcN, dilution point 1 of 10, starting concentration 5 uM", "result": "89.5809 and 91.9275"},
      {"measurement": "NORMALISED (growth inhibition, LDH absorbance)", "setting": "CR-N330K parasites; 0 mM GlcN, dilution point 2 of 10 from starting concentration 5 uM", "result": "82.5498 and 75.3344"},
      {"measurement": "NORMALISED (growth inhibition, LDH absorbance)", "setting": "CR-N330K parasites; [1]", "result": 90.7025},
      {"measurement": "NORMALISED (growth inhibition, LDH absorbance)", "setting": "CR-N330K parasites; [2]", "result": 83.8227},
      {"measurement": "NORMALISED (growth inhibition, LDH absorbance)", "setting": "CR-N330K parasites; [3]", "result": "67.3993 and 45.0538"},
      {"measurement": "NORMALISED (growth inhibition, LDH absorbance)", "setting": "CR-N330K parasites; [4]", "result": "5.889 and 5.4992"},
      {"measurement": "NORMALISED (growth inhibition, LDH absorbance)", "setting": "CR-N330K parasites; [5]", "result": "66.3651 and 90.1101"},
      {"measurement": "NORMALISED (growth inhibition, LDH absorbance)", "setting": "CR-N330K parasites; [6]", "result": "62.0066 and 84.8366"},
      {"measurement": "NORMALISED (growth inhibition, LDH absorbance)", "setting": "CR-N330K parasites; [7]", "result": "63.3224 and 83.4457"},
      {"measurement": "NORMALISED (growth inhibition, LDH absorbance)", "setting": "CR-N330K parasites; [8]", "result": "52.3849 and 74.2725"},
      {"measurement": "NORMALISED (growth inhibition, LDH absorbance)", "setting": "CR-N330K parasites; [9]", "result": "40.7072 and 51.6938"},
      {"measurement": "NORMALISED (growth inhibition, LDH absorbance)", "setting": "CR-N330K parasites; [10]", "result": "28.9474 and 29.6954"}
    ]}
  ]
}
